Source: patent US20070128217A1 (priority 2003, published 2007)

Columns and labels:
[1] = tested on: antibodies in sera from SARS patients (sera 1a, 1b, 2, 6, 37, 62, London, SARS-yellow, SARS-green); type: binding, human; set-up: Binding of serum 6 to linear peptides of protein X1 of SARS-CoV Urbani / Binding of serum 37 to linear peptides of protein X1 of SARS-CoV Urbani / Binding of serum 6 to looped/cyclic peptide (PEPSCAN-ELISA) / Binding of serum 37 to looped/cyclic peptide (PEPSCAN-ELISA) / Binding of serum 37 to looped/cyclic peptides of protein X1 of SARS-CoV Urbani / Binding of serum 6 to linear peptides of protein X2 / Binding of serum 37 to linear peptides of protein X2 / Binding of serum 37 to looped/cyclic peptides of protein X2 of SARS-CoV Urbani / Binding of serum 6 to linear peptides of protein M of SARS-CoV Urbani / Binding of serum 37 to linear peptides of protein M of SARS-CoV Urbani / Binding of serum 6 to looped/cyclic peptides of protein M of SARS-CoV Urbani / Binding of serum 37 to looped/cyclic peptides of protein M of SARS-CoV Urbani / Binding of serum 6 to linear peptides of protein X3 of SARS-CoV Urbani / Binding of serum 37 to linear peptides of protein X3 of SARS-CoV Urbani / Binding of serum 37 to looped/cyclic peptides of protein X3 of SARS-CoV Urbani / Binding of serum 6 to linear peptides of protein X4 of SARS-CoV Urbani / Binding of serum 37 to linear peptides of protein X4 of SARS-CoV Urbani / Binding of serum 37 to looped/cyclic peptides of protein X4 of SARS-CoV Urbani / Binding of serum 6 to linear peptides of protein X5 of SARS-CoV Urbani / Binding of serum 37 to linear peptides of protein X5 of SARS-CoV Urbani / Binding of serum 37 to looped/cyclic peptides of protein X5 of SARS-CoV Urbani / Binding of serum 6 to linear peptides of protein N of SARS-CoV Urbani / Binding of serum 37 to linear peptides of protein N of SARS-CoV Urbani / Binding of serum 6 to linear peptide (PEPSCAN-ELISA) / Binding of serum 1a to looped/cyclic peptides of protein N of SARS-CoV Urbani / Binding of serum 1b to looped/cyclic peptides of protein N of SARS-CoV Urbani / Binding of serum 2 to looped/cyclic peptides of protein N of SARS-CoV Urbani / Binding of serum 6 to looped/cyclic peptides of protein N of SARS-CoV Urbani / Binding of serum 37 to looped/cyclic peptides of protein N of SARS-CoV Urbani / Binding of serum 62 to looped/cyclic peptides of protein N of SARS-CoV Urbani / Binding of serum London to looped/cyclic peptides of protein N of SARS-CoV Urbani / Binding of serum SARS-green to looped/cyclic peptides of protein N of SARS-CoV Urbani: unit not given here
[2] = tested on: control sera (pooled serum of ten healthy LUMC hospital workers; commercial negative donor pooled serum from the Dutch bloodbank); type: binding, human; set-up: Binding of Control serum LUMC to linear peptides / Binding of Control serum Blood-bank to linear peptides / Binding of Control serum LUMC to looped peptides / Binding of Control Serum Blood-Bank to Looped peptides / Binding of Control serum LUMC to linear peptides of the protein M of SARS-CoV Urbani / Binding of Control serum Blood-bank to linear peptides of the protein M of SARS-CoV Urbani / Binding of Control serum LUMC to looped peptides of the protein M of SARS-CoV Urbani / Binding of Control Serum Blood-Bank to Looped peptides of the protein M of SARS-CoV Urbani: unit not given here
[3] = tested on: rabbit serum obtained by immunizing a rabbit with the SARS-CoV strain Frankfurt 1; type: binding; set-up: Binding of a rabbit serum to linear peptides / Binding of a rabbit serum to looped peptides / Rabbit serum linear peptides / Rabbit serum looped peptides / Binding of a rabbit serum to linear peptides of protein N of SARS-CoV Urbani (Rabbit serum linear peptides) / Binding of a rabbit serum to looped/cyclic peptides of protein N of SARS-CoV Urbani (Rabbit serum looped peptides): unit not given here

Row | Sequence | Binding of serum 1a to linear peptides of protein X1 of SARS-CoV Urbani [1] | Binding of serum 1b to linear peptides of protein X1 of SARS-CoV Urbani [1] | Binding of serum 2 to linear peptides of protein X1 of SARS-CoV Urbani [1] | Binding of serum 6 to linear peptides of protein X1 of SARS-CoV Urbani [1] | Binding of serum 37 to linear peptides of protein X1 of SARS-CoV Urbani [1] | Binding of serum 62 to linear peptides of protein X1 of SARS-CoV Urbani [1] | Binding of serum London to linear peptides of protein X1 of SARS-CoV Urbani [1] | Binding of serum SARS-green to linear peptides of protein X1 of SARS-CoV Urbani [1] | Binding of serum SARS-yellow to linear peptides of protein X1 of SARS-CoV Urbani [1] | Binding of Control Serum Blood-Bank to Looped peptides [2] | Binding of Control serum Blood-bank to linear peptides [2] | Binding of Control serum LUMC to linear peptides [2] | Binding of Control serum LUMC to looped peptides [2] | Binding of a rabbit serum to linear peptides [3] | Binding of a rabbit serum to looped peptides [3] | other results
1 | AQFLYLYALIYFLQC | 0.6 | 0.5 | 0.5 | 0.3 | 0.6 | 0.4 | 0.2 | 0.2 | 0.4 | 0.4 | 0.4 | 0.5 | 0.5 | 0.2 | 0.5 | Binding of serum 1a to looped/cyclic peptide (PEPSCAN-ELISA) [1]: 0.5; Binding of serum 1b to looped/cyclic peptide (PEPSCAN-ELISA) [1]: 0.3; Binding of serum 2 to looped/cyclic peptide (PEPSCAN-ELISA) [1]: 0.4; Binding of serum 6 to looped/cyclic peptide (PEPSCAN-ELISA) [1]: 0.2; Binding of serum 37 to looped/cyclic peptide (PEPSCAN-ELISA) [1]: 0.4; Binding of serum 62 to looped/cyclic peptide (PEPSCAN-ELISA) [1]: 0.5; Binding of serum London to looped/cyclic peptide (PEPSCAN-ELISA) [1]: 0.2; Binding of serum SARS-green to looped/cyclic peptide (PEPSCAN-ELISA) [1]: 0.3; Binding of serum SARS-yellow to looped/cyclic peptide (PEPSCAN-ELISA) [1]: 0.3
2 | SLHKLLQTLVLKMLH |  |  |  |  |  |  |  |  |  | 0.7 | 0.6 | 0.3 | 0.7 | 0.3 | 0.5 | Binding of serum 1a to linear peptides of protein X2 [1]: 0.7; Binding of serum 1a to looped/cyclic peptides of protein X2 of SARS-CoV Urbani [1]: 0.6; Binding of serum 1b to linear peptides of protein X2 [1]: 0.5; Binding of serum 1b to looped/cyclic peptides of protein X2 of SARS-CoV Urbani [1]: 0.5; Binding of serum 2 to linear peptides of protein X2 [1]: 0.3; Binding of serum 2 to looped/cyclic peptides of protein X2 of SARS-CoV Urbani [1]: 0.4; Binding of serum 6 to linear peptides of protein X2 [1]: 0.3; Binding of serum 6 to looped/cyclic peptides of protein X2 of SARS-CoV Urbani [1]: 0.3; Binding of serum 37 to linear peptides of protein X2 [1]: 0.4; Binding of serum 37 to looped/cyclic peptides of protein X2 of SARS-CoV Urbani [1]: 0.4; Binding of serum 62 to linear peptides of protein X2 [1]: 0.6; Binding of serum 62 to looped/cyclic peptides of protein X2 of SARS-CoV Urbani [1]: 0.7; Binding of serum London to linear peptides of protein X2 [1]: 0.3; Binding of serum London to looped/cyclic peptides of protein X2 of SARS-CoV Urbani [1]: 0.3; Binding of serum SARS-green to linear peptides of protein X2 [1]: 0.4; Binding of serum SARS-green to looped/cyclic peptides of protein X2 of SARS-CoV Urbani [1]: 0.3; Binding of serum SARS-yellow to linear peptides of protein X2 [1]: 0.1; Binding of serum SARS-yellow to looped/cyclic peptides of protein X2 of SARS-CoV Urbani [1]: 0.5
3 | IVVTEGDGISTPKLK | 0.5 | 0.5 | 0.3 | 0.4 | 0.5 | 0.3 | 0.2 | 0.1 | 0.1 | 0.3 | 0.3 | 0.3 | 0.3 | 0.1 | 0.4 | Binding of serum 1a to looped/cyclic peptides of protein X1 of SARS-CoV Urbani [1]: 0.3; Binding of serum 1b to looped/cyclic peptides of protein X1 of SARS-CoV Urbani [1]: 0.2; Binding of serum 2 to looped/cyclic peptides of protein X1 of SARS-CoV Urbani [1]: 0.1; Binding of serum 6 to looped/cyclic peptides of protein X1 of SARS-CoV Urbani [1]: 0.1; Binding of serum 37 to looped/cyclic peptides of protein X1 of SARS-CoV Urbani [1]: 0.2; Binding of serum 62 to looped/cyclic peptides of protein X1 of SARS-CoV Urbani [1]: 0.3; Binding of serum London to looped/cyclic peptides of protein X1 of SARS-CoV Urbani [1]: 0.1; Binding of serum SARS-green to looped/cyclic peptides of protein X1 of SARS-CoV Urbani [1]: 0.0; Binding of serum SARS-yellow to looped/cyclic peptides of protein X1 of SARS-CoV Urbani [1]: 0.1
